From patent publication US8227428B2, “Anti-infammatory macrolide” (Glaxo Group Limited, priority 2009, dated 2012)

Columns and labels:
[1] = Stability in buffer solutions pH 2 to pH 8 at 25° C.; format: physicochemical
Procedure: (§1) Stability in buffer solutions pH 2 to pH 8 at 25° C., and in bio-relevant media (SGF pH 1.6, Fasted SIF pH 6.5 and Fed SIF pH 5.0) at 37° C., during 24 hours is monitored. The samples are analysed by LC/MS.
Buffer Solutions and Physiologically Relevant Media Used in Stability Assay:
LC Conditions: Instrument HP1100
Column: Waters XBridge C18, 2.1×50 mm, 3.5 μm
Guard column: Waters XBridge C18, 2.1×10 mm, 3.5 μm
• A) 0.1% HCOOH/H2O • B) 0.1% HCOOH/CH3CN Gradient Timetable: […]
(§2) Flow: 0.3 mL/min Column temp.: 25° C. Sample temp.: 25° C. (for stability assay in buffer solutions) • 37° C. (for stability assay in bio-relevant media) Injector volume: 3 μL (without injection program) MS Conditions: Instrument HP MS API-ES, positive ion mode Mass Range: 150-1500 Fragmentor: 100 Gain: 1.0 Treshold: 150 Step size: 0.20 Gas Temperature: 350° C. Drying Gas Flow: 13 L/min Nebulizer Pressure: 35 psig Capillary Voltage Positive 4000 V • Negative 4000 V Sample Preparation: a) For Stability Assay in Buffer Solutions
Compounds are dissolved in CH3CN to produce a 1 mg/mL stock solution. The stock solution is diluted to a concentration of 0.2 mg/mL (1 mL solution in 4 mL buffer) with appropriate buffer to produce a working solution.
Each solution at each pH is then dispatched into vials that are sealed and stored at room temperature in order to be analyzed at the proper time point. Before analysis, pH values of prepared sample solutions are checked and adjusted if neccessary.

[2] = Stability in bio-relevant media (SGF, Fasted SIF, Fed SIF) at 37° C.; format: physicochemical
Procedure: as §1
SGF (Simulated Gastric Fluid) pH 1.6
Fasted SIF (Simulated Intestinal Fluid) pH 6.5
Fed SIF (Simulated Intestinal Fluid) pH 5.0
as §2
b) For Stability Assay in Bio-Relevat Media
b1) For SGF Media pH 1.6 Testing:
Compounds are dissolved in SGF media pH 1.6 to give 0.2 mg/mL solution in case of compounds 1 and 2, and to give 0.1 mg/mL solution in case of compound 3. Solutions are then stored in a water bath at 37° C. and removed at the proper time point for LC/MS analysis. Before analysis, pH values of prepared sample solutions are checked and adjusted if necessary.
b2) For Fasted SIF Media pH 6.5 Testing:
(§3) Compounds are dissolved in Fasted SIF media pH 6.5 to give 2 mg/mL solution. Solutions are then dispatched into vials that are stored in a water bath at 37° C. and removed at the proper time point and diluted 10 times with CH3CN for LC/MS analysis. Before analysis, pH values of prepared sample solutions are checked and adjusted if necessary.
b3) For Fed SIF Media pH 5.0 Testing:
as §3, with “Fed” for “Fasted”, “5.0” for “6.5”, “40” for “10”

Compound: CC[C@H]1OC(=O)[C@H](C)[C@@H](O[C@H]2C[C@@](C)(OC)[C@@H](OC(=O)CN(CC)CC)[C@H](C)O2)[C@H](C)[C@@H](O[C@@H]2O[C@H](C)C[C@H](N(C)C)[C@H]2O)[C@](C)(OC)C[C@@H](C)C(=O)N[C@H](C)[C@@H](O)[C@]1(C)O [Example 3, 4″-O-(2-diethylaminoethanoyl)-6-O-methyl-9a-aza-9a-homoerythromycin A]
- Percentage (Area %) of the compound observed in buffers ([1]; pH 6, 25° C., 20 h): 99.7 Area %
- Percentage (Area %) of the compound observed in buffers ([1]; pH 6, 25° C., 22 h): 99.7 Area %
- Percentage (Area %) of the compound observed in buffers ([1]; pH 6, 25° C., 24 h): 99.7 Area %
- Percentage (Area %) of the compound observed in buffers ([1]; pH 6, 25° C., Initial): 100 Area %
- Percentage (Area %) of the compound observed in buffers ([1]; pH 7, 25° C., 2 h): 100 Area %
- Percentage (Area %) of the compound observed in buffers ([1]; pH 7, 25° C., 4 h): 99.9 Area %
- Percentage (Area %) of the compound observed in buffers ([1]; pH 7, 25° C., 6 h): 99.9 Area %
- Percentage (Area %) of the compound observed in buffers ([1]; pH 7, 25° C., 8 h): 99.9 Area %
- Percentage (Area %) of the compound observed in buffers ([1]; pH 7, 25° C., 12 h): 99.7 Area %
- Percentage (Area %) of the compound observed in buffers ([1]; pH 7, 25° C., 14 h): 99.7 Area %
- Percentage (Area %) of the compound observed in buffers ([1]; pH 7, 25° C., 18 h): 99.8 Area %
- Percentage (Area %) of the compound observed in buffers ([1]; pH 7, 25° C., 20 h): 98.8 Area %
- Percentage (Area %) of the compound observed in buffers ([1]; pH 7, 25° C., 22 h): 99.7 Area %
- Percentage (Area %) of the compound observed in buffers ([1]; pH 7, 25° C., 24 h): 98.7 Area %
- Percentage (Area %) of the compound observed in buffers ([1]; pH 7, 25° C., Initial): 100 Area %
- Percentage (Area %) of the compound observed in buffers ([1]; pH 8, 25° C., 2 h): 99.9 Area %
- Percentage (Area %) of the compound observed in buffers ([1]; pH 8, 25° C., 4 h): 99.9 Area %
- Percentage (Area %) of the compound observed in buffers ([1]; pH 8, 25° C., 6 h): 99.9 Area %
- Percentage (Area %) of the compound observed in buffers ([1]; pH 8, 25° C., 8 h): 99.7 Area %
- Percentage (Area %) of the compound observed in buffers ([1]; pH 8, 25° C., 12 h): 99.5 Area %
- Percentage (Area %) of the compound observed in buffers ([1]; pH 8, 25° C., 14 h): 99.4 Area %
- Percentage (Area %) of the compound observed in buffers ([1]; pH 8, 25° C., 18 h): 98.4 Area %
- Percentage (Area %) of the compound observed in buffers ([1]; pH 8, 25° C., 20 h): 98.3 Area %
- Percentage (Area %) of the compound observed in buffers ([1]; pH 8, 25° C., 22 h): 98.2 Area %
- Percentage (Area %) of the compound observed in buffers ([1]; pH 8, 25° C., 24 h): 98.2 Area %
- Percentage (Area %) of the compound observed in buffers ([1]; pH 8, 25° C., Initial): 100 Area %
- Percentage (Area %) of the compound observed in Bio-relevant media ([2]; Fasted SIF pH 6.5, 37° C., 1 h): 99.2 Area %
- Percentage (Area %) of the compound observed in Bio-relevant media ([2]; Fasted SIF pH 6.5, 37° C., 2 h): 98.7 Area %
- Percentage (Area %) of the compound observed in Bio-relevant media ([2]; Fasted SIF pH 6.5, 37° C., 3 h): 98.3 Area %
- Percentage (Area %) of the compound observed in Bio-relevant media ([2]; Fasted SIF pH 6.5, 37° C., 4 h): 97.8 Area %
- Percentage (Area %) of the compound observed in Bio-relevant media ([2]; Fasted SIF pH 6.5, 37° C., 5 h): 97.6 Area %
- Percentage (Area %) of the compound observed in Bio-relevant media ([2]; Fasted SIF pH 6.5, 37° C., 24 h): 95.1 Area %
- Percentage (Area %) of the compound observed in Bio-relevant media ([2]; Fasted SIF pH 6.5, 37° C., Initial): 100 Area %
- Percentage (Area %) of the compound observed in Bio-relevant media ([2]; Fed SIF pH 5.0, 37° C., 1 h): 100 Area %
- Percentage (Area %) of the compound observed in Bio-relevant media ([2]; Fed SIF pH 5.0, 37° C., 2 h): 99.9 Area %
- Percentage (Area %) of the compound observed in Bio-relevant media ([2]; Fed SIF pH 5.0, 37° C., 3 h): 100 Area %
- Percentage (Area %) of the compound observed in Bio-relevant media ([2]; Fed SIF pH 5.0, 37° C., 4 h): 99.9 Area %
- Percentage (Area %) of the compound observed in Bio-relevant media ([2]; Fed SIF pH 5.0, 37° C., 5 h): 99.8 Area %
- Percentage (Area %) of the compound observed in Bio-relevant media ([2]; Fed SIF pH 5.0, 37° C., 24 h): 99.8 Area %
- Percentage (Area %) of the compound observed in Bio-relevant media ([2]; Fed SIF pH 5.0, 37° C., Initial): 100 Area %
- Percentage (Area %) of the compound observed in Bio-relevant media ([2]; SGF pH 1.6, 37° C., 1 h): 98.5 Area %
- Percentage (Area %) of the compound observed in Bio-relevant media ([2]; SGF pH 1.6, 37° C., 2 h): 98.5 Area %
- Percentage (Area %) of the compound observed in Bio-relevant media ([2]; SGF pH 1.6, 37° C., 3 h): 98.0 Area %
- Percentage (Area %) of the compound observed in Bio-relevant media ([2]; SGF pH 1.6, 37° C., 4 h): 98.0 Area %
- Percentage (Area %) of the compound observed in Bio-relevant media ([2]; SGF pH 1.6, 37° C., 5 h): 98.0 Area %
- Percentage (Area %) of the compound observed in Bio-relevant media ([2]; SGF pH 1.6, 37° C., 6 h): 95.9 Area %
- Percentage (Area %) of the compound observed in Bio-relevant media ([2]; SGF pH 1.6, 37° C., 8 h): 95.7 Area %
- Percentage (Area %) of the compound observed in Bio-relevant media ([2]; SGF pH 1.6, 37° C., 10 h): 95.0 Area %
- Percentage (Area %) of the compound observed in Bio-relevant media ([2]; SGF pH 1.6, 37° C., 12 h): 95.0 Area %
- Percentage (Area %) of the compound observed in Bio-relevant media ([2]; SGF pH 1.6, 37° C., 24 h): 94.5 Area %
- Percentage (Area %) of the compound observed in Bio-relevant media ([2]; SGF pH 1.6, 37° C., Initial): 100 Area %
- stability in all three bio relevant media ([2]; SGF pH 1.6, Fasted SIF pH 6.5, Fed SIF pH 5.0, 37° C., during 24 hours): Examples 1 and 3 showed stability in all three bio relevant media.
